In PMC4080778, “Steroid conversion with CYP106A2 – production of pharmaceutically interesting DHEA metabolites” (Microbial Cell Factories, 2014):

Target: T1, CYP106A2 (Priestia megaterium, UniProt Q06069)
T1 sequence (Q06069 1-410): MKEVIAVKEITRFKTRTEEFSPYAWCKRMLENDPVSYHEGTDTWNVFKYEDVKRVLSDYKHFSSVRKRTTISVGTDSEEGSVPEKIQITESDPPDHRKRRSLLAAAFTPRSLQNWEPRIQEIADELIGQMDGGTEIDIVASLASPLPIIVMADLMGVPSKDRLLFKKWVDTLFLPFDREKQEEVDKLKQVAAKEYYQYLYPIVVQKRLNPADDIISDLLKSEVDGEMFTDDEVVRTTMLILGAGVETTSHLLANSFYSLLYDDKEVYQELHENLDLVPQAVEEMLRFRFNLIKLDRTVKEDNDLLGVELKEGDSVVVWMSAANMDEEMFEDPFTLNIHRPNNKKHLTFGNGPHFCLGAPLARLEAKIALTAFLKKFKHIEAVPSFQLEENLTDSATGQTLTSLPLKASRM
Assay: UV-vis difference spectroscopy titration (type I high-spin shift, tandem cuvettes)
Type: binding

C[C@]12CCC(=O)C=C1CC[C@@H]1[C@@H]2CC[C@]2(C)C(=O)CC[C@@H]12 [androstenedione]
Kd: 92 ± 11 µM
